Converted amounts (≈) assume the structure as drawn.
Tests used:
[1] = Hygroscopicity by dynamic vapor sorption (DVS); type: physicochemical
Description: Samples are analyzed for hygroscopicity using Intrinsic DVS ([…], UK). Approximately 10 to 30 mg of sample is used for testing. The testing chamber is controlled at a temperature of 25 ± 1°C with the specific testing parameters shown below: […]

[2] = Solubility of crystal forms in buffers, biorelevant media and water (HPLC, XRPD of residual solid); type: physicochemical; settings: for pH (24 h): 5 mg/mL suspension stirred at 37°C, pH of the solution at 24 h; for Solubility at 37°C (mg/mL) 2 h: 120 min
Description: The solubility of the two crystal forms at 2 hours and 24 hours and the pH of the solution at 24 hours were tested. The solid was filtered, and the resulting solid was tested for XRPD.

[3] = Physicochemical stability of crystal forms (HPLC purity, XRPD)
[4] = Mechanical stability: dry grinding, wet grinding, tableting (XRPD); type: physicochemical
Description: Dry grinding: approximately 10 mg of the starting sample was ground for 3 minutes in a mortar, and then subjected to XRPD testing.
Wet grinding: approximately 10 mg of the starting sample was ground with 1 to 2 drops of solvent for 3 minutes in a mortar, and then subjected to XRPD testing.
Tableting experiment: approximately 10 mg of the starting sample was compressed at 20 MPa for 3 minutes, and then subjected to XRPD testing.

[5] = Dry grinding, 3 minutes in a mortar, no solvent
[6] = Tableting, 20 MPa for 3 minutes, solvent EA
[7] = Wet grinding, solvent EtOH, 3 minutes in a mortar
[8] = Wet grinding, solvent Water, 3 minutes in a mortar

Q: Which hygroscopic weight gain ([1]; 80% RH, 25°C) does the source give for COc1cc2nn(C3CC4(CCN(C(=O)C5CCN(c6ccc7c(c6)C(=O)N(C6CCC(=O)NC6=O)C7=O)CC5)CC4)C3)cc2cc1NC(=O)c1cccc(C(F)(F)F)n1 (single isomer, unassigned) [crystal form A] here?
A: The hygroscopic weight gain was 2.213%.

Q: What about the hygroscopicity evaluation ([1]; DVS, based on weight gain at 80% RH) of the same molecule?
A: The hygroscopicity evaluation was “hygroscopic”.

Q: And the “crystal form after DVS testing” value ([1]; after DVS testing)?
A: Its value is “no change in the crystal form”.

Q: And the “pH (24 h)” value ([2]; FaSSIF)?
A: Its value is 6.570.

Q: What about the “Solubility at 37°C (mg/mL) 2 h” value ([2]; FaSSIF, 37°C, 2 h) of the same molecule?
A: The value was 0.00461 mg/mL (≈ 5.58 µM).

Q: And the “Solubility at 37°C (mg/mL) 24 h” value ([2]; FaSSIF, 37°C, 1440 min)?
A: The value was 0.00285 mg/mL (≈ 3.45 µM).

Q: What about the solubility ([2]; FeSSIF, stirring at 37°C for 24 hours, 1440 min) of the same molecule?
A: The solubility was “approximately 0.004 mg/mL”.

Q: And the “pH (24 h)” value ([2]; FeSSIF)?
A: Its value is 5.032.

Q: What about the “Solubility at 37°C (mg/mL) 2 h” value ([2]; FeSSIF, 37°C, 2 h) of the same molecule?
A: Its value is 0.00391 mg/mL (≈ 4.73 µM).

Q: What about the “Solubility at 37°C (mg/mL) 24 h” value ([2]; FeSSIF, 37°C, 1440 min) of the same molecule?
A: Its value is 0.00414 mg/mL (≈ 5.01 µM).

Q: And the “pH (24 h)” value ([2]; SGF)?
A: The value was 1.225.

Q: What about the “pH (24 h)” value ([2]; Water) of the same molecule?
A: Its value is 7.311.

Q: What about the “Solubility at 37°C (mg/mL) 24 h” value ([2]; Water, 37°C, 1440 min) of the same molecule?
A: The value was 0.00075 mg/mL (≈ 0.907 µM).

Q: And the Crystal form ([2]; XRPD of residual solid after stirring in FaSSIF at 37°C for 24 hours)?
A: The Crystal form was “Crystal form A”.

Q: And the Crystal form ([2]; XRPD of residual solid after stirring in FeSSIF at 37°C for 24 hours)?
A: The Crystal form was “Crystal form A”.

Q: What about the Crystal form ([2]; XRPD of residual solid after stirring in SGF at 37°C for 24 hours) of the same molecule?
A: Its Crystal form is “Crystal form A”.

Q: What about the Crystal form ([2]; XRPD of residual solid after stirring in Water at 37°C for 24 hours) of the same molecule?
A: Its Crystal form is “Crystal form A”.

Q: And the Crystal form ([2]; XRPD of residual solid after stirring in pH 1.2 buffer at 37°C for 24 hours)?
A: The Crystal form was “Crystal form A”.

Q: And the Crystal form ([2]; XRPD of residual solid after stirring in pH 3.0 buffer at 37°C for 24 hours)?
A: The Crystal form was “Crystal form A”.

Q: What about the Crystal form ([2]; XRPD of residual solid after stirring in pH 4.5 buffer at 37°C for 24 hours) of the same molecule?
A: The Crystal form was “Crystal form A”.

Q: What about the Crystal form ([2]; XRPD of residual solid after stirring in pH 6.8 buffer at 37°C for 24 hours) of the same molecule?
A: Its Crystal form is “Crystal form A”.

Q: And the Crystal form ([2]; XRPD of residual solid after stirring in pH 7.4 buffer at 37°C for 24 hours)?
A: Its Crystal form is “Crystal form A”.

Q: What about the solubility at 24 h ([2]; fassif, stirring at 37°C for 24 hours, read-out: solubility) of the same molecule?
A: Its solubility at 24 h is ~4 µg/mL (≈ 4.84 µM).

Q: And the “pH (24 h)” value ([2]; pH 1.2 buffer)?
A: The value was 1.214.

Q: What about the “pH (24 h)” value ([2]; pH 3.0 buffer) of the same molecule?
A: The value was 3.078.

Q: And the “pH (24 h)” value ([2]; pH 4.5 buffer)?
A: The value was 4.584.

Q: What about the “Solubility at 37°C (mg/mL) 2 h” value ([2]; pH 4.5 buffer, 37°C, 2 h) of the same molecule?
A: Its value is 0.00026 mg/mL (≈ 0.314 µM).

Q: And the “pH (24 h)” value ([2]; pH 6.8 buffer)?
A: Its value is 6.833.

Q: And the “pH (24 h)” value ([2]; pH 7.4 buffer)?
A: The value was 7.428.

Q: And the solubility at 2 h ([2]; water, 37°C, 2 h, read-out: Solubility at 37°C (mg/mL) 2 h)?
A: Its solubility at 2 h is 0.00052 mg/mL (≈ 0.629 µM).

Q: What about the “Purity (%)” value ([3]; 25°C/60% RH, open, 1 week) of the same molecule?
A: Its value is 96.38%.

Q: And the XRPD ([3]; 25°C/60% RH, open, 1 week)?
A: The XRPD was “Unchanged”.

Q: What about the “Purity (%)” value ([3]; 40°C/75% RH, open, 1 week) of the same molecule?
A: Its value is 96.39%.

Q: What about the XRPD ([3]; 40°C/75% RH, open, 1 week) of the same molecule?
A: Its XRPD is “Unchanged”.

Q: And the “Purity (%)” value ([3]; 60°C, closed, 1 week)?
A: The value was 96.40%.

Q: What about the XRPD ([3]; 60°C, closed, 1 week) of the same molecule?
A: The XRPD was “Unchanged”.

Q: And the “Purity (%)” value ([3]; Initial)?
A: Its value is 96.41%.

Q: And the XRPD ([3]; Initial)?
A: Its XRPD is “Crystal form A”.

Q: And the “Purity (%)” value ([3]; Light, closed, 10 days)?
A: Its value is 96.41%.

Q: What about the XRPD ([3]; Light, closed, 10 days) of the same molecule?
A: The XRPD was “Unchanged”.

Q: What about the “Purity (%)” value ([3]; Light, control, 10 days) of the same molecule?
A: Its value is 96.42%.

Q: What about the XRPD ([3]; Light, control, 10 days) of the same molecule?
A: The XRPD was “Unchanged”.

Q: What about the “change in the crystal form after stability testing” value ([3]; all stability conditions) of the same molecule?
A: Its value is “no change in the crystal form”.

Q: What about the degradation ([3]; all stability conditions (60°C, 25°C/60% RH, 40°C/75% RH 1 week; light 10 days)) of the same molecule?
A: Its degradation is “no significant degradation”.

Q: What about the Solid color [4, 5] of the same molecule?
A: Its Solid color is “Slightly deepened, yellow”.

Q: And the XRPD results [4, 5]?
A: The XRPD results was “Crystal form A (low degree of crystallinity)”.

Q: And the Solid color [4, 6]?
A: The Solid color was “Slightly deepened, yellow”.

Q: And the XRPD results [4, 6]?
A: Its XRPD results is “Crystal form A”.

Q: What about the Solid color [4, 7] of the same molecule?
A: The Solid color was “Slightly deepened, yellow”.

Q: And the XRPD results [4, 7]?
A: Its XRPD results is “Crystal form A”.

Q: And the Solid color [4, 8]?
A: The Solid color was “Slightly deepened, yellow”.

Q: And the XRPD results [4, 8]?
A: The XRPD results was “Crystal form A”.

Q: What about the “degree of crystallinity of the solid” value ([4]; after dry grinding) of the same molecule?
A: Its value is “reduction in the degree of crystallinity”.

Q: And the “crystal form of the solid (XRPD)” value ([4]; after dry grinding, wet grinding, and tableting)?
A: The value was “no change in the crystal form”.

Q: What about the Solid color ([4]; after grinding and tableting experiments, versus starting sample) of the same molecule?
A: Its Solid color is “slightly darker”.

Q: And the “degree of crystallinity of the solid” value ([4]; after wet grinding and tableting)?
A: Its value is “almost no change in the degree of crystallinity”.
